Test results: patent US20260262643A1, “HERBICIDAL BENZOXAZINES” (FMC CORPORATION, priority 2022, published 2026)

Legend:
horseweed = assay: Test C postemergence; assay type: in vivo, Erigeron canadensis; conditions: 10 days, 0 to 100 scale (0 no effect, 100 complete control)
How it was run: (§1)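 Test material, in non-phytotoxic solvent with surfactant, was sprayed on the soil directly after seeding (preemergence) or on young plants of 2–10 cm with one to two leaves (postemergence). Greenhouse, 10 days; 0–100 visual control scale.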

barnyardgrass [1] = assay: Test D flooded paddy test; assay type: in vivo, Echinochloa crus-galli; conditions: 250 g ai/ha, applied to paddy water, visual rating after 13 to 14 days, scale 0 to 100 (0 no effect, 100 complete control)
How it was run: (§2)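 Visual ratings from 0, meaning no effect, to 100, meaning complete control, were assigned against untreated controls 13 to 14 days after compounds were added to the floodwater of pots kept 3 cm deep, with plants at the 2-leaf stage.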

ragweed [2] = assay: Test C postemergence; assay type: in vivo, Ambrosia artemisiifolia; conditions: 10 days, 0 to 100 scale (0 no effect, 100 complete control)
How it was run: as §1

oat, wild [3] = assay: Test C postemergence; assay type: in vivo, Avena fatua; conditions: 10 days, 0 to 100 scale (0 no effect, 100 complete control)
How it was run: as §1

kochia [4] = assay: Test C preemergence; assay type: in vivo, Bassia scoparia
How it was run: as §1

rice = assay: Test D flooded paddy test; assay type: in vivo, Oryza sativa; conditions: 250 g ai/ha, applied to paddy water, visual rating after 13 to 14 days, scale 0 to 100 (0 no effect, 100 complete control)
How it was run: as §2

barnyardgrass [5] = assay: Test C postemergence; assay type: in vivo, Echinochloa crusgalli; conditions: 10 days, 0 to 100 scale (0 no effect, 100 complete control)
How it was run: as §1

pigweed, palmer [6] = assay: Test C preemergence; assay type: in vivo, Amaranthus palmeri
How it was run: as §1

pigweed, palmer [7] = assay: Test C postemergence; assay type: in vivo, Amaranthus palmeri; conditions: 10 days, 0 to 100 scale (0 no effect, 100 complete control)
How it was run: as §1

foxtail, giant [8] = assay: Test C preemergence; assay type: in vivo, Setaria faberi
Source text: (§3) Seeds of plant species selected from barnyardgrass (Echinochloa crusgalli), blackgrass (Alopecurus myosuroides), corn (Zea mays), foxtail, giant (giant foxtail, Setaria faberi), green foxtail (Setaria viridis), goosegrass (Eleusine indica), kochia (Bassia scoparia), oat, wild (wild oat, Avena fatua), pigweed, palmer (palmer amaranth, palmer pigweed, Amaranthus palmeri), Pigweed, Redroot (redroot pigweed, Amaranthus retroflexus), ragweed (common ragweed, Ambrosia artemisiifolia), ryegrass, Italian ([…] ryegrass, Lolium multiflorum), soybean (Glycine max), and wheat (Triticum aestivum) were planted into a blend of loam soil and sand and treated preemergence with a directed soil spray using test chemicals formulated in a non-phytotoxic solvent mixture which included a surfactant. At the same time, plants selected from these crops and weed species and also galium (catchweed bedstraw, Galium aparine) and horseweed (Erigeron canadensis) were planted in pots containing the same blend of loam soil and sand and treated with postemergence applications of test chemicals formulated in the same manner. Plants ranged in height from 2 to 10 cm and were in the one- to two-leaf stage for the postemergence treatment. Treated plants and untreated controls were maintained in a greenhouse for 10 days, after which time all treated plants were compared to untreated controls and visually evaluated for injury. Plant response ratings, summarized in Table C, are based on a 0 to 100 scale where 0 is no effect and 100 is complete control. A dash (-) response means no test result.

ryegrass, Italian [9] = assay: Test C preemergence; assay type: in vivo, Lolium multiflorum
How it was run: as §1

soybean [10] = assay: Test C postemergence; assay type: in vivo, Glycine max; conditions: 10 days, 0 to 100 scale (0 no effect, 100 complete control)
How it was run: as §1

galium = assay: Test C postemergence; assay type: in vivo, Galium aparine; conditions: 10 days, 0 to 100 scale (0 no effect, 100 complete control)
How it was run: as §1

soybean [11] = assay: Test C preemergence; assay type: in vivo, Glycine max
How it was run: as §1

ducksalad = assay: Test D flooded paddy test; assay type: in vivo, Heteranthera limosa; conditions: 250 g ai/ha, applied to paddy water, visual rating after 13 to 14 days, scale 0 to 100 (0 no effect, 100 complete control)
How it was run: as §2

barnyardgrass [12] = assay: Test C preemergence; assay type: in vivo, Echinochloa crusgalli
How it was run: as §1

oat, wild [13] = assay: Test C preemergence; assay type: in vivo, Avena fatua
How it was run: as §1

ryegrass, Italian [14] = assay: Test C postemergence; assay type: in vivo, Lolium multiflorum; conditions: 10 days, 0 to 100 scale (0 no effect, 100 complete control)
How it was run: as §1

sedge, umbrella = assay: Test D flooded paddy test; assay type: in vivo, Cyperus difformis; conditions: 250 g ai/ha, applied to paddy water, visual rating after 13 to 14 days, scale 0 to 100 (0 no effect, 100 complete control)
How it was run: as §2

wheat [15] = assay: Test C preemergence; assay type: in vivo, Triticum aestivum
How it was run: as §1

foxtail, giant [16] = assay: Test C postemergence; assay type: in vivo, Setaria faberi; conditions: 10 days, 0 to 100 scale (0 no effect, 100 complete control)
Source text: as §3

corn [17] = assay: Test C preemergence; assay type: in vivo, Zea mays
How it was run: as §1

blackgrass [18] = assay: Test C postemergence; assay type: in vivo, Alopecurus myosuroides; conditions: 10 days, 0 to 100 scale (0 no effect, 100 complete control)
How it was run: as §1

corn [19] = assay: Test C postemergence; assay type: in vivo, Zea mays; conditions: 10 days, 0 to 100 scale (0 no effect, 100 complete control)
How it was run: as §1

ragweed [20] = assay: Test C preemergence; assay type: in vivo, Ambrosia artemisiifolia
How it was run: as §1

blackgrass [21] = assay: Test C preemergence; assay type: in vivo, Alopecurus myosuroides
How it was run: as §1

kochia [22] = assay: Test C postemergence; assay type: in vivo, Bassia scoparia; conditions: 10 days, 0 to 100 scale (0 no effect, 100 complete control)
How it was run: as §1

wheat [23] = assay: Test C postemergence; assay type: in vivo, Triticum aestivum; conditions: 10 days, 0 to 100 scale (0 no effect, 100 complete control)
How it was run: as §1

[24] = 500 g ai/ha, preemergence, 0 to 100 scale (0 no effect, 100 complete control)
[25] = Preemergence, 125 g ai/ha, 0 to 100 scale, 0 no effect, 100 complete control

**Q.** For Cc1ccc(-n2cncn2)cc1C(=O)N1CC(C(F)(F)F)Oc2c(Cl)cccc21 (stereo not shown) [Compound 346], which “Plant response rating, Horseweed” value (horseweed; 500 g ai/ha, postemergence) is on record?
**A.** 0

**Q.** And the “Plant response rating, Horseweed” value (horseweed; Postemergence, 125 g ai/ha)?
**A.** 0

**Q.** What about the “Plant response rating, Barnyardgrass (Flood)” value (barnyardgrass [1]) of the same compound?
**A.** 0

**Q.** What about the “Plant response rating, Ragweed” value (ragweed [2]; 500 g ai/ha, postemergence) of the same compound?
**A.** 40

**Q.** And the “Plant response rating, Ragweed” value (ragweed [2]; Postemergence, 125 g ai/ha)?
**A.** 30

**Q.** And the “Plant response rating, Oat, Wild” value (oat, wild [3]; 500 g ai/ha, postemergence)?
**A.** 60

**Q.** What about the “Plant response rating, Oat, Wild” value (oat, wild [3]; Postemergence, 125 g ai/ha) of the same compound?
**A.** 0

**Q.** And the “Kochia plant response rating” value (kochia [4]; [24])?
**A.** 80

**Q.** And the “Plant response rating, Kochia” value (kochia [4]; [25])?
**A.** 10

**Q.** And the “Plant response rating, Rice (Flood)” value (rice)?
**A.** 0

**Q.** What about the “Plant response rating, Barnyardgrass” value (barnyardgrass [5]; 500 g ai/ha, postemergence) of the same compound?
**A.** 70

**Q.** And the “Plant response rating, Barnyardgrass” value (barnyardgrass [5]; Postemergence, 125 g ai/ha)?
**A.** 40

**Q.** What about the “Pigweed, Palmer plant response rating” value (pigweed, palmer [6]; [24]) of the same compound?
**A.** 100

**Q.** What about the “Plant response rating, Pigweed, Palmer” value (pigweed, palmer [6]; [25]) of the same compound?
**A.** 100

**Q.** And the “Plant response rating, Pigweed, Palmer” value (pigweed, palmer [7]; 500 g ai/ha, postemergence)?
**A.** 70

**Q.** What about the “Plant response rating, Pigweed, Palmer” value (pigweed, palmer [7]; Postemergence, 125 g ai/ha) of the same compound?
**A.** 40

**Q.** And the “Foxtail, Giant plant response rating” value (foxtail, giant [8]; [24])?
**A.** 100

**Q.** What about the “Plant response rating, Foxtail, Giant” value (foxtail, giant [8]; [25]) of the same compound?
**A.** 100

**Q.** What about the “Ryegrass, Italian plant response rating” value (ryegrass, Italian [9]; [24]) of the same compound?
**A.** 90

**Q.** And the “Plant response rating, Ryegrass, Italian” value (ryegrass, Italian [9]; [25])?
**A.** 80

**Q.** What about the “Plant response rating, Soybean” value (soybean [10]; 500 g ai/ha, postemergence) of the same compound?
**A.** 100

**Q.** What about the “Plant response rating, Soybean” value (soybean [10]; Postemergence, 125 g ai/ha) of the same compound?
**A.** 90

**Q.** And the “Plant response rating, Galium” value (galium; 500 g ai/ha, postemergence)?
**A.** 100

**Q.** What about the “Plant response rating, Galium” value (galium; Postemergence, 125 g ai/ha) of the same compound?
**A.** 100

**Q.** What about the “Soybean plant response rating” value (soybean [11]; [24]) of the same compound?
**A.** 100

**Q.** And the “Plant response rating, Soybean” value (soybean [11]; [25])?
**A.** 30

**Q.** What about the “Plant response rating, Ducksalad (Flood)” value (ducksalad) of the same compound?
**A.** 65

**Q.** What about the “Barnyardgrass plant response rating” value (barnyardgrass [12]; [24]) of the same compound?
**A.** 100

**Q.** What about the “Plant response rating, Barnyardgrass” value (barnyardgrass [12]; [25]) of the same compound?
**A.** 70

**Q.** What about the “Oat, Wild plant response rating” value (oat, wild [13]; [24]) of the same compound?
**A.** 40

**Q.** What about the “Plant response rating, Oat, Wild” value (oat, wild [13]; [25]) of the same compound?
**A.** 0

**Q.** And the “Plant response rating, Ryegrass, Italian” value (ryegrass, Italian [14]; 500 g ai/ha, postemergence)?
**A.** 80

**Q.** And the “Plant response rating, Ryegrass, Italian” value (ryegrass, Italian [14]; Postemergence, 125 g ai/ha)?
**A.** 70

**Q.** What about the “Plant response rating, Sedge, Umbrella (Flood)” value (sedge, umbrella) of the same compound?
**A.** 85

**Q.** And the “Wheat plant response rating” value (wheat [15]; [24])?
**A.** 80

**Q.** What about the “Plant response rating, Wheat” value (wheat [15]; [25]) of the same compound?
**A.** 0

**Q.** And the “Plant response rating, Foxtail, Giant” value (foxtail, giant [16]; 500 g ai/ha, postemergence)?
**A.** 90

**Q.** What about the “Plant response rating, Foxtail, Giant” value (foxtail, giant [16]; Postemergence, 125 g ai/ha) of the same compound?
**A.** 90

**Q.** And the “Corn plant response rating” value (corn [17]; [24])?
**A.** 90

**Q.** And the “Plant response rating, Corn” value (corn [17]; [25])?
**A.** 0

**Q.** What about the “Plant response rating, Blackgrass” value (blackgrass [18]; 500 g ai/ha, postemergence) of the same compound?
**A.** 90

**Q.** What about the “Plant response rating, Blackgrass” value (blackgrass [18]; Postemergence, 125 g ai/ha) of the same compound?
**A.** 80

**Q.** What about the “Plant response rating, Corn” value (corn [19]; 500 g ai/ha, postemergence) of the same compound?
**A.** 90

**Q.** What about the “Plant response rating, Corn” value (corn [19]; Postemergence, 125 g ai/ha) of the same compound?
**A.** 10

**Q.** What about the “Ragweed plant response rating” value (ragweed [20]; [24]) of the same compound?
**A.** 10

**Q.** And the “Plant response rating, Ragweed” value (ragweed [20]; [25])?
**A.** 0

**Q.** What about the “Blackgrass plant response rating” value (blackgrass [21]; [24]) of the same compound?
**A.** 90

**Q.** What about the “Plant response rating, Blackgrass” value (blackgrass [21]; [25]) of the same compound?
**A.** 80

**Q.** What about the “Plant response rating, Kochia” value (kochia [22]; 500 g ai/ha, postemergence) of the same compound?
**A.** 80

**Q.** What about the “Plant response rating, Kochia” value (kochia [22]; Postemergence, 125 g ai/ha) of the same compound?
**A.** 70

**Q.** And the “Plant response rating, Wheat” value (wheat [23]; 500 g ai/ha, postemergence)?
**A.** 70

**Q.** What about the “Plant response rating, Wheat” value (wheat [23]; Postemergence, 125 g ai/ha) of the same compound?
**A.** 20
